The target of data set [1] is Angiopoietin-1 receptor (Homo sapiens) (UniProt Q02763). The data set can be described thus: Inhibition of TEK relative to control. The note with it: concentration not given here.
A short description of data set [2]: Half life in mouse at 10 mg/kg, po. The arrangement: dose 10 mg/kg, route oral. The following applies: in vivo. The format is ADME, organism-based.
Data set [3] deals with Receptor-interacting serine/threonine-protein kinase 2 (Homo sapiens) (UniProt O43353). The experiment in a line: Inhibition of RIPK2 relative to control. The note with it: concentration not given here.
The target of data set [4] is High affinity nerve growth factor receptor (Homo sapiens) (UniProt P04629). The data set can be described thus: Inhibition of NTRK1 relative to control. The note with it: concentration not given here.
Data set [5] concerns the target Vascular endothelial growth factor receptor 1 (Homo sapiens) (UniProt P17948). The experiment in a line: Inhibition of FLT1 relative to control. The following applies: concentration not given here.
Data set [6] concerns the target T1, Tyrosine-protein kinase Lck (Homo sapiens, UniProt P06239). The experiment in a line: Inhibition of LCK relative to control. The note with it: concentration not given here.
Target sequence in this assay (P06239 2-509 limits assumed): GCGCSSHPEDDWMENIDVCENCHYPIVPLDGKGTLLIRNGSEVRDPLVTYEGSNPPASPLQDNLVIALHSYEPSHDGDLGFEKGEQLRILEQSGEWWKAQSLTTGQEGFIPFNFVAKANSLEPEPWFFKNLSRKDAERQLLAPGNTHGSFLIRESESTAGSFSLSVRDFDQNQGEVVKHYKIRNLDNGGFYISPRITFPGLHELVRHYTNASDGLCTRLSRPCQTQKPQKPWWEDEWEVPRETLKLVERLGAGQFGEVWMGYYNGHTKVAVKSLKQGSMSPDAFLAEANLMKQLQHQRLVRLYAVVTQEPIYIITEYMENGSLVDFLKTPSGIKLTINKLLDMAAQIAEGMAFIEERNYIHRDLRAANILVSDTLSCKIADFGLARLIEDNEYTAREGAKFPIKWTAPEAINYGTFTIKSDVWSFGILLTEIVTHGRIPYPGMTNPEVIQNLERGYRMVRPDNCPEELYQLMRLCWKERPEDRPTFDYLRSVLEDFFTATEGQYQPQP
The target in data set [7] is Receptor tyrosine-protein kinase erbB-4 (Homo sapiens, UniProt Q15303). The experiment in a line: Inhibition of HER4 relative to control. The note with it: concentration not given here.
Data set [8] has as its target Serine/threonine-protein kinase B-raf (Homo sapiens) (UniProt P15056). The data set can be described thus: Inhibition of B-Raf relative to control. The note with it: concentration not given here.
Data set [9] concerns the target Tyrosine-protein kinase CSK (Homo sapiens) (UniProt P41240). The data set can be described thus: Inhibition of CSK relative to control. The note with it: concentration not given here.
Data set [10] has as its target T1, Tyrosine-protein kinase Lck. The experiment in a line: Inhibition of C-terminal His6-tagged human full-length LCK expressed in Sf9 cells preincubated for 60 mins measured after 60 mins by TR-FRET Assay.
Target sequence in this assay (P06239 whole entry): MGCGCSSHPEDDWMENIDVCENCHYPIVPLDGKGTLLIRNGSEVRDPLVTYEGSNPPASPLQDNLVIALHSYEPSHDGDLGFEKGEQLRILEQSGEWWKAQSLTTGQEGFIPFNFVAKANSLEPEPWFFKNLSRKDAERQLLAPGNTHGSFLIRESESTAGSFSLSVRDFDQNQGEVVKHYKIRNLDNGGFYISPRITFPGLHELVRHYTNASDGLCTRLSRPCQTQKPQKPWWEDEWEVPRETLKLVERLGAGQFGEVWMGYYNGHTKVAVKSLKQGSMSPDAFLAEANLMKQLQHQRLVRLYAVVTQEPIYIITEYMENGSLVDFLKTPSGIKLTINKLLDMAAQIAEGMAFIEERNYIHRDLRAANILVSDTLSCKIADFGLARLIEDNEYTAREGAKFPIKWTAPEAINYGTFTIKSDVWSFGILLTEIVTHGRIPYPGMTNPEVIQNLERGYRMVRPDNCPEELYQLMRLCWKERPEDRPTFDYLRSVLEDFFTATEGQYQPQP

Consider one molecule from ChEMBL document CHEMBL1914368, “Imidazo[1,5-a]quinoxalines as irreversible BTK inhibitors for the treatment of rheumatoid arthritis” (Bioorg Med Chem Lett, 2011).

Chain of Serine/threonine-protein kinase B-raf (Homo sapiens) (P15056 whole entry): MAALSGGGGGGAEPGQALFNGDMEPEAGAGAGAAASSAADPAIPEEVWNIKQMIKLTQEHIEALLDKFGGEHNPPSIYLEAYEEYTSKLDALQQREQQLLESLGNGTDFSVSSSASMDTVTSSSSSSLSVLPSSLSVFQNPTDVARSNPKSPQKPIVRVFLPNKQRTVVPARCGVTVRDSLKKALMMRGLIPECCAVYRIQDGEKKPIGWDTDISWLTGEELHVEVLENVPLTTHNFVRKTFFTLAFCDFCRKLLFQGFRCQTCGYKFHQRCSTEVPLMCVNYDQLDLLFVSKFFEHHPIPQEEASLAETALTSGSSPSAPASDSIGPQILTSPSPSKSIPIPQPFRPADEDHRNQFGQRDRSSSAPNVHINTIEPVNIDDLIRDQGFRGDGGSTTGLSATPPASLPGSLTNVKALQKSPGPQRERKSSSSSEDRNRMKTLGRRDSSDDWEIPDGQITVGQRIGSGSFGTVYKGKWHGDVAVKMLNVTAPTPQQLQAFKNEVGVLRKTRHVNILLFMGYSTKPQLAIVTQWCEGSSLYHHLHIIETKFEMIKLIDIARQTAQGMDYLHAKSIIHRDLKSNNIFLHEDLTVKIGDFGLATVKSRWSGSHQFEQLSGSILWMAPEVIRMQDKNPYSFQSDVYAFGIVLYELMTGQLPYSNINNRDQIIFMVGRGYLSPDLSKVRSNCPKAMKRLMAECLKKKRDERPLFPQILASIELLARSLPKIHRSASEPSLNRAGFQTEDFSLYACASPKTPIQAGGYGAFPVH
Chain of Receptor tyrosine-protein kinase erbB-4 (Q15303 whole entry): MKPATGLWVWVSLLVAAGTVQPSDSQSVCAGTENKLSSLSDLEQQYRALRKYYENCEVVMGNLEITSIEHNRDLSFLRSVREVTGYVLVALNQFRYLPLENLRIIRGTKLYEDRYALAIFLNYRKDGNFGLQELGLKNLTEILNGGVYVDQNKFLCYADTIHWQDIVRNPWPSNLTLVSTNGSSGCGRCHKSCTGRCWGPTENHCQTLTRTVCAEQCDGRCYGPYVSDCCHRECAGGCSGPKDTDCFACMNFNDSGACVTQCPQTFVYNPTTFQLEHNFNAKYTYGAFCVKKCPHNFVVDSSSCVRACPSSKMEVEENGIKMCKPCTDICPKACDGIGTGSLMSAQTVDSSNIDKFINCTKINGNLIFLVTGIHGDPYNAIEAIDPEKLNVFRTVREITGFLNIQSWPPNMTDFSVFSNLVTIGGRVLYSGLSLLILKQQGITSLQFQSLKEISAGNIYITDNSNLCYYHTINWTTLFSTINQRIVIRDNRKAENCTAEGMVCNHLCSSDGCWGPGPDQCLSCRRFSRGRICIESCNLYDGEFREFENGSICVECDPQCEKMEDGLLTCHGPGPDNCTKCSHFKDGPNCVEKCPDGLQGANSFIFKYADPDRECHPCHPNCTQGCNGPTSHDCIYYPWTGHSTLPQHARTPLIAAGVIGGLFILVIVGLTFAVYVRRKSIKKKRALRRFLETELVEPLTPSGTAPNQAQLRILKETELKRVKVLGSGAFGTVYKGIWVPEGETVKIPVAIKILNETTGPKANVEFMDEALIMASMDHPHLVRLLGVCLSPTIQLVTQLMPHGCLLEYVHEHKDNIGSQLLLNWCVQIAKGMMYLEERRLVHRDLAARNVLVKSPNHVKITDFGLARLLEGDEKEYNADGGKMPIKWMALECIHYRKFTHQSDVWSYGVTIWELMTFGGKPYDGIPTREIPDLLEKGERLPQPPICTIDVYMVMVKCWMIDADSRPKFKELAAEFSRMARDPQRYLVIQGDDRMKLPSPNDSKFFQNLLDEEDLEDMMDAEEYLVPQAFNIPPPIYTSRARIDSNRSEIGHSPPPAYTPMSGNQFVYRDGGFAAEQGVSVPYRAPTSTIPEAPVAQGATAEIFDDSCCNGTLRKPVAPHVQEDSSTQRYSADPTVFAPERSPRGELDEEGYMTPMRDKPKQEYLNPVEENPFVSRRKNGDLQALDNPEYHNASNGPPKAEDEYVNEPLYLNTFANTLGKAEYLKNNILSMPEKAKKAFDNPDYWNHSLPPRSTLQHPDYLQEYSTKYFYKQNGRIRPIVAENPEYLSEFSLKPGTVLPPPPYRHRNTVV
Chain of Tyrosine-protein kinase CSK (Homo sapiens) (P41240 2-450 limits assumed): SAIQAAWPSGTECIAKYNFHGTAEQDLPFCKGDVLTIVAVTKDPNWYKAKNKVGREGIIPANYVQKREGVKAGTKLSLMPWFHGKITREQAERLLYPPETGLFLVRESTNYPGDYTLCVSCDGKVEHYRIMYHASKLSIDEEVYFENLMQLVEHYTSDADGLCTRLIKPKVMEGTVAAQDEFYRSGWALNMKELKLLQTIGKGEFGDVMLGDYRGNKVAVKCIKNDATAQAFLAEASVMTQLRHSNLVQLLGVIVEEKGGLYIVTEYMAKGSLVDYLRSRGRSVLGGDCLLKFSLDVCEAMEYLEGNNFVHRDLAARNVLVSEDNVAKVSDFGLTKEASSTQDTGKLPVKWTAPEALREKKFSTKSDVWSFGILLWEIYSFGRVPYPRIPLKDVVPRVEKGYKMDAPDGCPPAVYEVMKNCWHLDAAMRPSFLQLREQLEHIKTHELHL
Chain of Angiopoietin-1 receptor (Homo sapiens) (Q02763 whole entry): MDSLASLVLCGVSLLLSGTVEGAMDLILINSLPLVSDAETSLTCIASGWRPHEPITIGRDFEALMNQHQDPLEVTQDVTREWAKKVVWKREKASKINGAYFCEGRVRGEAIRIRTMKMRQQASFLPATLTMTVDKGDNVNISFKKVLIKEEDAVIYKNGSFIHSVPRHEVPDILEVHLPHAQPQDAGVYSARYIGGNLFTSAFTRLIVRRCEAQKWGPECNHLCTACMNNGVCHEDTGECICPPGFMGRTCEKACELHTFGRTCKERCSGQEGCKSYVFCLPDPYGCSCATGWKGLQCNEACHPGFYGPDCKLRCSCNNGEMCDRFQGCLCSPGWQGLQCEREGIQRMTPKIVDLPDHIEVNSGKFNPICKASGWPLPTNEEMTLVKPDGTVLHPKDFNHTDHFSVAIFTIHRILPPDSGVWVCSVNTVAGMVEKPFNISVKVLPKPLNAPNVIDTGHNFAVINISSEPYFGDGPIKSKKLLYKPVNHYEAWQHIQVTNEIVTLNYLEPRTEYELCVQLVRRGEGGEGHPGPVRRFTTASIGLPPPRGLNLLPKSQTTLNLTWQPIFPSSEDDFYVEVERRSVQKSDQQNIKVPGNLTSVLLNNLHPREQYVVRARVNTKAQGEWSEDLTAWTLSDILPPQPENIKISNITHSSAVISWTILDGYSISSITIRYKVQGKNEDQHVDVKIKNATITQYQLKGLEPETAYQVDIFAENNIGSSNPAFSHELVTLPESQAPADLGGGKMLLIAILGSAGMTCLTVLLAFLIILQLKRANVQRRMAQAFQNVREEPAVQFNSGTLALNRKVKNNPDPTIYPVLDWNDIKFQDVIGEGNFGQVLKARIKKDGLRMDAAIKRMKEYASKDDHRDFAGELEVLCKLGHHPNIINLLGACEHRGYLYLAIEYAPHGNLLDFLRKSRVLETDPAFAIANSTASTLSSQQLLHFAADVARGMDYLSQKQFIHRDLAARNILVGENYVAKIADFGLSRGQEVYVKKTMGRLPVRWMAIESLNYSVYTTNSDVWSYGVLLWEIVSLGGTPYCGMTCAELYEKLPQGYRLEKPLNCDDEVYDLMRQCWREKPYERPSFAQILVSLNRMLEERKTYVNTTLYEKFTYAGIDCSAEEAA

A word on the inhibition: it is the drop in the measured response relative to a control, in per cent. Usually half-life stands for the time in which the quantity being followed falls by half. Higher therefore signals slow loss. A word on the IC50: it is the concentration that inhibits the measured activity by half. Read a high IC50 as a need for much substance. For the molecule `Cc1ccccc1Nc1nc2cc(F)c(N(C)C(=O)/C=C/CN(C)C)cc2n2cncc12`, the inhibition stood at 13% in data set [1]; 8% in data set [3]; 8% in [4]; 1% in [5]; 25% in data set [6]; 101% in data set [7]. Also, the inhibition in [8] came to 19%; in [9], 15%. In data set [2], this molecule showed a half-life of 2 h. In data set [10], half-maximal inhibition (IC50) required 755 nM.
